Measurements: patent EP3283473B1, “GHRELIN O-ACYL TRANSFERASE INHIBITORS” (Eli Lilly and Company, priority 2015, dated 2016)

Biological target: T1, GOAT enzyme (Mus musculus, UniProt P0C7A3)
T1 construct: from tissue; host or cells: living male C57BL/6 mice (endogenous enzyme)
T1 sequence (P0C7A3 1-435): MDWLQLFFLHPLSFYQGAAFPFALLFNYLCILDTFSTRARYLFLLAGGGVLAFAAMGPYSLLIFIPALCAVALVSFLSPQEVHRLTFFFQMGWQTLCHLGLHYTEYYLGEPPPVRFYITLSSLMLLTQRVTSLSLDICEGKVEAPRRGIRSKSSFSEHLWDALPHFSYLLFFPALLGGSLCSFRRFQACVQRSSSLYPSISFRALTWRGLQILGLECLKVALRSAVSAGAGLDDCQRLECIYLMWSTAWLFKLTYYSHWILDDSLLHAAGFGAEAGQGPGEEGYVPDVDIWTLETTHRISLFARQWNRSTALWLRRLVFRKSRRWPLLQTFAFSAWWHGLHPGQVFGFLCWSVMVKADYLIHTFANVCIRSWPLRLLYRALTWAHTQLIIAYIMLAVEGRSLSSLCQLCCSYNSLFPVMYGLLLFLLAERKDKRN
Assay: In vivo dose dependent 3 day BID study for GOAT inhibitor (plasma AG and UAG by ELISA)
Design: species or system male C57BL/6 mice
Settings: for decreases plasma AG / increases UAG: administration for 3 days; for decreases plasma AG / increases UAG / AG (% of control) / AG/total-ghrelin (% of vehicle control) / UAG (% of vehicle control): mice; for reduction in AG to total ghrelin ratio: compared to vehicle-treated control animals; for AG (% of control) / AG/total-ghrelin (% of vehicle control) / UAG (% of vehicle control): oral gavage BID, 3 days, plasma
Experimental: Comparing the change in the ratio of AG to total ghrelin in the compound treated group and that of the vehicle treated group reflects the degree of GOAT enzyme inhibition in vivo, due to the dynamic processing of UAG to AG by the GOAT enzyme. In the in vivo pharmacodynamic studies herein, the levels of AG and UAG in plasma and stomach in the vehicle and compound treated groups are measured by ELISA specifically to these two analytes. The total ghrelin level of each sample is computed as the sum of AG and UAG by these ELISA measurements. The ratio of AG to total ghrelin is defined by the level of AG in each sample divided by the level of total ghrelin in the same sample. The levels of AG, UAG and ratio of AG to total ghrelin in the vehicle treated group is computed and set as 100%. The relative change of these parameters in the compound treated group is then computed to determine the effectiveness of the test compound.
Purchase male C57BL/6 mice from Harlan (Indianapolis, IN) at 9 weeks of age. House the mice individually in a temperature-controlled (24 °C) facility with a 12 hours light/dark cycle (lights on 2200 h), and allow free access to a standard rodent chow (diet 2014, Harlan) and water. Typically, use the mice when they are 10-13 weeks of age at the time of the study. On day 0 of the experiment, randomize the mice into treatment groups (N=7/group) so each group has similar mean body weights. On day 1 and day 2, treat the animals with vehicle (1% hydroxyethylcellulose, 0.25% TWEEN™ 80, 0.05% antifoam) or test compound prepared in the vehicle as suspension at various dosages by oral gavage at 7 am and 7 pm. On day 3, fast the animals, move them into clean cages and dose with vehicle or the test compound again at 8 am by oral gavage. That same day at 1 pm, sacrifice the animals by decapitation to collect blood. For details of blood collection and plasma treatments see Blood collection and Extraction of Ghrelin from Plasma section below.
Collect approximately 600 µL blood into a pre-weighed EDTA tube containing 600 µL (defined as Vpreservative) freshly-prepared preservative (4 mM PEFABLOC® [4-(2-aminoethyl) benzenesulfonyl fluoride hydrochloride], 72 mM NaCl, 58 mM NaF, 0.032 N hydrochloric acid, pH 3.0) and mix immediately. Weigh the tube again and keep on ice. To accurately determine the exact blood volume of each sample using this blood collection procedure, the weight of the blood for each mouse is computed using the following equation: Weight of Blood = (Weight of the tube containing Blood + preservative)−; (Weight of the tube containing preservative) [formula] Blood volume(Vblood) = (Weight of blood)/1.06 [formula]
Within 15 minutes after the blood collection, samples are centrifuged at 5000 rpm at 4 °C for 8 min. Remove plasma (650 µL) to a 5 mL glass tube containing 1 N hydrochloric acid (65µL), mix and keep on ice.
AG and UAG are extracted from plasma using SEP-PAK®_C18 column to remove interference prior to performing the ELISA. The solid phase extraction of AG and UAG peptides by SEP-PAK®_C18 columns can be performed on a vacuum manifold (Waters Corp) or using a peristaltic pump. The sample SEP-PAK®_column extraction procedure is independently applied to the plasma sample obtained from each individual mouse. The general extraction protocol is described as follows.
All solutions used for the entire protocol of the SEP-PAK® column extraction should be at ice cold condition. Wet SEP-PAK®_columns (WAT054960, Waters Corp, Milford MA) with 99.9% ACN/0.1% TFA (1 mL of solution of 100 mL ACN/0.1 mL TFA). […] Once liquid is removed from the column, stop the pressure. Equilibrate the columns with 3% ACN/0.1% TFA (1 mL of 97 mL water, 3 mL ACN, 0.1 mL TFA). […] Dilute approximately 650 µL acidified plasma (defined as Vplasma added to column) to 1.4 mL ice cold 0.1% TFA. Load all diluted acidified plasma from the previous step onto the columns. […]

For `Cc1nc(C(F)(F)F)nc(N)c1CCC1CCN(C(=O)[C@H](C)NC(=O)c2ccnn2C)CC1` [Example 2, N-[(1S)-2-[4-[2-[4-Amino-6-methyl-2-(trifluoromethyl)pyrimidin-5-yl]ethyl]-1-piperidyl]-1-methyl-2-oxo-ethyl]-2-methyl-pyrazole-3-carboxamide], the “decreases plasma AG” value (0.1 mg/kg) was 40%, the “increases UAG” value (0.1 mg/kg) was 2.10 fold and the “reduction in AG to total ghrelin ratio” value (0.1 mg/kg) was 57%. The “AG (% of control)” value (0.1 mg/kg) was 60 ± 8 (n=7) % of control, the “AG/total-ghrelin (% of vehicle control)” value (0.1 mg/kg) was 43 ± 3 (n=7) % of vehicle control and the “UAG (% of vehicle control)” value (0.1 mg/kg) was 210 ± 43 (n=7) % of vehicle control. The “decreases plasma AG” value (0.3 mg/kg) was 60%, the “increases UAG” value (0.3 mg/kg) was 2.22 fold and the “reduction in AG to total ghrelin ratio” value (0.3 mg/kg) was 62%. The “AG (% of control)” value (0.3 mg/kg) was 40 ± 10 (n=7) % of control, the “AG/total-ghrelin (% of vehicle control)” value (0.3 mg/kg) was 28 ± 1 (n=7) % of vehicle control and the “UAG (% of vehicle control)” value (0.3 mg/kg) was 222 ± 54 (n=7) % of vehicle control. The “decreases plasma AG” value (1 mg/kg) was 56%, the “increases UAG” value (1 mg/kg) was 3.57 fold and the “reduction in AG to total ghrelin ratio” value (1 mg/kg) was 79%. For the same compound, the “AG (% of control)” value (1 mg/kg) was 44 ± 6 (n=14) % of control, the “AG/total-ghrelin (% of vehicle control)” value (1 mg/kg) was 21 ± 1 (n=14) % of vehicle control and the “UAG (% of vehicle control)” value (1 mg/kg) was 357 ± 30 (n=14) % of vehicle control. The “decreases plasma AG” value (3 mg/kg) was 63%, the “increases UAG” value (3 mg/kg) was 3.49 fold and the “reduction in AG to total ghrelin ratio” value (3 mg/kg) was 82%. The “AG (% of control)” value (3 mg/kg) was 37 ± 9.6 (n=14) % of control, the “AG/total-ghrelin (% of vehicle control)” value (3 mg/kg) was 18 ± 5 (n=14) % of vehicle control and the “UAG (% of vehicle control)” value (3 mg/kg) was 349 ± 41 (n=14) % of vehicle control. For the same compound, the “decreases plasma AG” value (10 mg/kg) was 63%, the “increases UAG” value (10 mg/kg) was 3.78 fold and the “reduction in AG to total ghrelin ratio” value (10 mg/kg) was 82%. The “AG (% of control)” value (10 mg/kg) was 37 ± 9.9 (n=7) % of control, the “AG/total-ghrelin (% of vehicle control)” value (10 mg/kg) was 18 ± 3 (n=7) % of vehicle control and the “UAG (% of vehicle control)” value (10 mg/kg) was 378 ± 59 (n=7) % of vehicle control.
